Reference: US7745450B2, “Pyrazolo[4,3-d]pyrimidines, processes for their preparation and methods for therapy” (Institute of Experimental Botany, priority 2002, dated 2010)

System: Cytokinin-dependent tobacco callus Nicotiana tabacum L. cv. Wisconsins 38
Assay: Tobacco callus bioassay for cytotoxicity (herbicidal activity)
Assay type: cell-based
In short: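 Compounds were prepared in DMSO as a 10^−3 M stock in water. Growth inhibition was scored from fresh callus weight gain after four weeks, with five replicates and the test run at least twice.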

## 5-(3-aminopropylamino)-7-benzylamino-3-isopropylpyrazolo[4,3-d]pyrimidine [Compound 17]
  Inhibition of tobacco callus growth: inhibitory effect
